Source: paper PMC8398714, “Synthesis and Evaluation of Biological Activities of Bis(spiropyrazolone)cyclopropanes: A Potential Application against Leishmaniasis” (Molecules, 2021)
Read-outs that look alike come from different tables or passages of the source.

Tests used:
[1] = DPPH radical scavenging assay; conditions: 30 min, 515 nm
Protocol: The stock solution of the compounds was prepared by dissolving 4 in dimethyl sulfoxide (DMSO) to a concentration of 4 mg/mL. The solution was diluted with methanol until a concentration of 400 µg/mL was obtained and then used immediately.
The experimental procedure was adapted from the literature. Briefly, 100 µL of a 0.2 mM methanol solution of DPPH (2, 2-diphenyl-1-picrylhydrazyl) radical were added to 100 µL of methanolic solutions of 4 prepared as serial two-fold dilutions from the stock solution in 96-well microfilter plates. Standards and edaravone were also prepared in the same concentrations. The mixture was incubated in dark at room temperature for 30 min and the absorbance was read at 515 nm on a Cytation 5 (BioTek) spectrophotometer.
The % DPPH scavenging activity was then calculated by using the following formula:(1) % DPPH scavenging = 100 × [(Asample+DPPH−Asample blank)/(ADPPH−Asolvent)]
The antioxidant activity of the compound was expressed as IC50, which is defined as the concentration that could scavenge 50% of the DPPH free radical. The IC50 values were calculated in GraphPad Prism 7.02 (GraphPad Software, Corp.) The results are given as a mean ± standard deviation (SD) of experiments done in triplicate.

[2] = tested on: RKO; assay: MTS cell viability assay on RKO cells; type: cell-based; conditions: Homo sapiens, 48 h
Protocol: (§1) Five tumor human cancer cell lines—cerebral astrocytoma (D-384), grade IV prostatic adenocarcinoma (PC-3), mammary adenocarcinoma (MCF-7), human colon carcinoma (RKO) and lung carcinoma (A-549)—along with one immortalized hamster cell line (CHO K-1) were used. The cells PC-3, MCF-7 and RKO were cultured in RPMI-1640, D-384 on DMEM and CHO K-1 on HAM F-12 medium supplemented with 10% fetal bovine serum (FBS, Invitrogen, Karlsruhe, Germany), 1% antibiotic-antimitotic solution (100 units/mL penicillin G, 100 µg/mL streptomycin, and 0.25 µg/mL amphotericin B, Gibco, Grand Island, NY, USA), and 1% L-glutamine (2 mM, Gibco). The cells were incubated at 37 °C in a 5% CO2 atmosphere. The viable cells were counted using the trypan blue exclusion method in a hemocytometer.
(§2) The MTS (5-[3-(carboxymethoxy)phenyl]-3-(4,5-dimethyl-2-thiazolyl)-2-(4-sulfo- phenyl)-2H-tetrazolium inner salt) cell viability assay was used to assess the inhibitory effects of the extracts on the survival of human cancer cell lines. A total of 3–5 × 10^3 cells/well were seeded into 96-well plates and were allowed to adhere for 24 h. […] Each concentration/assay was performed three times. Dimethyl sulfoxide (DMSO) was used as a negative control at a final concentration of 0.1% v/v, and 1 µM Doxorubicin was used as a positive control. The cells were incubated with the treatments for 48 h, after which 20 µL MTS (5 mg/mL, Aqueous One Solution Reagent, Gibco) was added and further incubated for 4 h at 37 °C. The absorbance was measured at 570 nm. The data obtained with cells treated with DMSO were defined to represent 100% viability.

[3] = tested on: PC-3; assay: MTS cell viability assay on PC-3 cells; type: cell-based; conditions: Homo sapiens, 48 h
Protocol: as §1, §2

[4] = tested on: A-549; assay: MTS cell viability assay on A-549 cells; type: cell-based; conditions: Homo sapiens, A549; 100 µM, 48 h; Dox 1 µM; mean ± SEM; NA = no activity; read-out: Percentage (%) of inhibition, A-549
Protocol: as §1, §2

[5] = tested on: MCF-7; assay: MTS cell viability assay on MCF-7 cells; type: cell-based; conditions: Homo sapiens, Dox 1 µM, mean ± SEM, NA = no activity, read-out: Percentage (%) of inhibition, MCF-7
Protocol: as §1, §2

[6] = tested on: HeLa; assay: MTS cell viability assay on HeLa cells; type: cell-based; conditions: Homo sapiens, 48 h, Dox 1 µM, mean ± SEM, NA = no activity, read-out: Percentage (%) of inhibition, HeLa
[7] = tested on: CHO-K1; assay: MTS cell viability assay on immortalized CHO-K1 cells; type: cell-based, hamster; conditions: 48 h, Dox 1 µM, mean ± SEM, NA = no activity, read-out: Percentage (%) of inhibition, CHO-K1
Protocol: as §1, §2

[8] = tested on: promastigotes of Leishmania mexicana; assay: Leishmanicidal activity, MTT assay on promastigotes; type: cell-based; conditions: for SI (Selectivity Index) = Citotoxic activity/Leishmanicidal activity: CC50 RAW / IC50 L. mexicana; for IC50: Leishmania mexicana
Protocol: The leishmanicidal activity of all compounds was evaluated by measuring promastigotes’ mitochondrial activity using MTT colorimetric assay as described previously. In this study, promastigotes from Leishmania mexicana were used. The species were confirmed by amplifying and sequencing cytochrome b gene. Promastigotes were cultured at 25 °C in Schneider’s Drosophila Medium (Gibco, Invitrogen, Carlsbad, CA, USA) supplemented with 10% fetal bovine serum (Eurobio, Les Ulis, France). The medium was renewed every third day. Parasite density was determined by counting the cells using a Neubauer chamber.
Into each well of a 96-well plate were dispensed 1 × 10^6 parasites/well. A stock solution of the compounds was prepared in DMSO (Sigma Aldrich, Saint Louis, MO, USA), and serial dilutions were added to the parasite suspension, leading to concentrations ranging from 100 to 0.001 µM, keeping the solvent concentration at 0.5%. The final volume was 200 µL for each well and triplicate conditions were carried out. Amphotericin B (Gibco) treatment (1 µM) untreated parasites and DMSO 0.5% were used as positive and negative controls, respectively. After exposure to the compounds for 48 h in culture medium, 20 µL of a solution of 5 mg/mL MTT dissolved in PBS were added to each well. The plate was incubated at 25 °C for 2 h in darkness. The plate was then centrifuged at 4400 rpm for 10 min and the culture medium was then aspirated; 50 µL of DMSO were added into each well to solubilize the formazan crystals and the plate was shaken for 5 min and then it was measured by recording changes in absorbance at 570 nm using a microplate reader Cytation 5 (BioTek) spectrophotometer. A reference wavelength of 630 nm was used as background subtraction. Optical densities were analyzed because the quantity of formazan is directly proportional to the number of viable parasites. Data were analyzed with the statistical software GraphPad Prism 7.02 (GraphPad Software, Corp.).

[9] = Cytotoxicity, MTT assay on RAW 264.7 macrophages; type: cell-based; conditions: mouse
Protocol: Raw 264.7 (ATCC® TIB-71™) was maintained in Dulbecco’s Modified Eagle Medium (DMEM) (Gibco, Invitrogen, Gibco, Carlsbad, CA, USA) supplemented with 10% fetal bovine serum (FBS) (Eurobio, Les Ulis, France) and 100 IU/mL penicillin + 100 μg/mL streptomycin (Gibco), at 37 °C in a 5% CO2 atmosphere. The medium was renewed once a week. The viability was determined using MTT (Thiazolyl Blue Tetrazolium Bromide) dye assay as described before for leishmanicidal activity assessment, with some variations. Here, 5 × 10^4 cells/well in a final volume of 100 µL were deposited into a 96-well plate, in triplicate. Saponin (2.4 mg/mL) and untreated cells were used as positive control and negative control, respectively. A stock solution was prepared in DMSO and immediately diluted in media to obtain different serial concentrations (100–0.01 µM). After 48 h exposure to the compounds, 10 µL/well of MTT (5 mg/mL MTT in PBS) were added, and the plate was incubated at 37 °C for 2 h in the dark. Cells were pelleted by centrifugation at 4400 rpm for 10 min and the media was removed. Then, 100 µL/well of DMSO were added and the absorbance at 570 nm was recorded; a reference wavelength of 630 nm was used for background subtraction.

[10] = MTS cell viability assay on A-549 cells; type: cell-based; conditions: Homo sapiens; 48 h, 15-150 µM, mean ± SEM of triplicates
Protocol: as §1, §2

[11] = tested on: Leishmania mexicana cells; assay: Comet assay of Leishmania mexicana cells; type: cell-based; parameters: Comet tail length, mean (vary) / Comet tail length, median (Q50): unit not given here; conditions: L. mexicana, 24 h at MIC; MMS 0.011%; Kruskal-Wallis $means
Protocol: We quantified DNA breaks by a comet assay to determine if these compounds are genotoxic. Here, L. mexicana cells were exposed for 24 h to MIC concentrations previously determined (see Materials and Methods Section) for each compound. Figure 1 represents the measurements obtained for tail length. All compounds generated DNA breaks expect 4s. […] Samples with DMSO and MMS (0.011%) were included as controls. Some representative pictures are shown at Figure S4. The effect of 4p could not be determined because the cells appear to be very damaged. The data was subjected via a Kruskal–Wallis one-way ANOVA (Statistical Analyses S2). […] These observations support a mechanism of action through the generation of DNA damage.
For leishmania, a method previously described for yeast was adapted. Briefly, after incubating the cells in presence of the compounds for 24 h, cells were collected and washed with buffer S (1 M sorbitol, 25 mM KH2PO4 in ultrapure water and adjust to pH 6.5 with NaOH). The pellet was resuspended in 400 µL of 1.5% LMA and 40 µL was spread (second layer) onto previously agarose-coated slides (first layer).
Slides were immersed in cold lysis buffer (30 mM NaOH, 1 M NaCl, 0.05 % (w/v) lauroylsarcosine, 50 mM EDTA, and 10 mM Tris–HCl, pH 10) for 25 min and then in cold electrophoresis alkaline buffer (30 mM NaOH, 10 mM EDTA, and 10 mM Tris–HCl, pH 10). They were then subjected to electrophoresis at 26V and 300 mA. Slides were immersed in neutralization buffer (10 mM Tris–HCl, pH 7.4; prepared in advance and stored at 4 °C) for 10 min at room temperature. The cells were then treated with proteinase K (20 min, 37 °C in humid chamber), followed by a new neutralization step. To dehydrate the slides, they were immersed in EtOH 90% and EtOH absolute for 10 min each. Finally, the slides were stained with Sybr Gold 1X.
The DNA migration was analyzed using a LEICA microscope with fluorescence (40×) by scoring 100 cells per slide in duplicate. The tail moment parameter was then analyzed by the Comet Score software.

[12] = 100 µM, Dox 1 µM, mean ± SEM, NA = no activity, read-out: Percentage (%) of inhibition, RKO
[13] = 100 µM, Dox 1 µM, mean ± SEM, NA = no activity, read-out: Percentage (%) of inhibition, PC-3
[14] = read-out: IC50 original values, x.1 (Mean)
[15] = L. mexicana promastigotes, 48 h, MTT, read-out: Leishmanicidal Activity IC50
[16] = RAW cells, 48 h, MTT, read-out: Cytotoxicity CC50
[17] = 15-150 µM, mean ± SEM of triplicates

`CC1=NN(c2ccccc2)C(=O)C12CC21C(=O)N(c2ccccc2)N=C1C` (stereo not drawn) gave a melting point of 165.8 to 167.9 °C.
Compound `COC1C=C(C(c2c(C)nn(-c3ccccc3)c2O)c2c(C)nn(-c3ccccc3)c2O)C=CC1(O)OC` (stereo not drawn) has a melting point of 208 to 210 °C.
For `Cc1nn(-c2ccccc2)c(O)c1C(c1cc(O)ccc1[N+](=O)[O-])c1c(C)nn(-c2ccccc2)c1O`, the melting point was 205 to 207 °C (dec.).
With `O=C1O[C@H]([C@@H](O)CO)C(O)=C1O` [Ascorbic acid, ascorbic acid, reference compound] the IC50 [1] was 14000 nM.
Work on `CC1=NN(c2ccccc2)C(=O)[C@@]12C(c1ccc(F)cc1)[C@@]21C(=O)N(c2ccccc2)N=C1C` (relative stereo) [4p, (5R*,6R*)-11-(4-Fluorophenyl)-4,10-dimethyl-2,8-diphenyl-2,3,8,9-tetraazadispiro[4.0.4.1]undeca-3,9-diene-1,7-dione] yielded an inhibition at 100 µM [2, 12] of 18.6 ± 1.37%, an inhibition at 100 µM [3, 13] of 5.25 ± 2.6% and an inhibition at 100 µM [4] of 9.08 ± 1.14%. It also gave an inhibition at 100 µM ([5]; MCF7, 48 h) of 13.6 ± 2.55%, an inhibition at 100 µM [6] of 5.98 ± 2.19% and an inhibition at 100 µM [7] of 1.95 ± 1.42%. For the same compound, the “SI (Selectivity Index) = Citotoxic activity/Leishmanicidal activity” value [8] was 6.1, the IC50 [8, 14] was 575 nM and the IC50 [8, 15] was 570 ± 230 nM. For the same compound, the CC50 at 48 h [9, 16] was 3500 ± 900 nM, the CC50 at 48 h ([9]; Statistical Analyses S1, unrounded mean of CC50 in RAW cells, unit inferred, read-out: CC50 original values, x.1 (Mean)) was 3550 nM and the IC50 [1] was > 300000 nM. The melting point was 128.9 to 129.9 °C.
With `C[C@@H]1[C@H](O)[C@@H](C)/C=C/C=C/C=C/C=C/C=C/C=C/C=C/[C@H](O[C@@H]2O[C@H](C)[C@@H](O)[C@H](N)[C@@H]2O)C[C@@H]2O[C@](O)(C[C@@H](O)C[C@@H](O)[C@H](O)CC[C@@H](O)C[C@@H](O)CC(=O)O[C@H]1C)C[C@H](O)[C@H]2C(=O)O` [Ampho B, Amphotericin B, reference compound] the “SI (Selectivity Index) = Citotoxic activity/Leishmanicidal activity” value [8] was >31.8, the IC50 [8, 14] was 172 nM and the IC50 [8, 15] was 170 ± 70 nM. For the same compound, the CC50 at 48 h [9, 16] was > 5400 nM.
Compound `COc1cccc2c1C(=O)c1c(O)c3c(c(O)c1C2=O)C[C@@](O)(C(=O)CO)C[C@@H]3O[C@H]1C[C@H](N)[C@H](O)[C@H](C)O1` [Dox, Doxorubicin, reference compound] has an inhibition at 1 µM [2, 12] of 85.6 ± 1.06%, an IC50 [2, 17] of 510 ± 10 nM and an inhibition at 1 µM [3, 13] of 88 ± 1.65%. The IC50 [3, 17] was 650 ± 80 nM, the IC50 [10] was 1230 ± 100 nM and the inhibition at 1 µM [4] was 9.16 ± 2.16%. The inhibition at 1 µM ([5]; MCF7, 100 µM, 48 h) was 46.2 ± 7.77%, the inhibition at 1 µM ([6]; 100 µM) was 9.18 ± 9.55% and the inhibition at 1 µM ([7]; 100 µM) was 2.62 ± 1.42%.
For `COS(C)(=O)=O` [MMS, methyl methanesulfonate, reference compound], the “Comet tail length, mean (vary)” value [11] was 67050000 and the “Comet tail length, median (Q50)” value [11] was 65000000.
Work on `CC1=NN(c2ccccc2)C(=O)C1=Cc1ccc(N(C)C)cc1` yielded a melting point of 190.7 to 193.2 °C.
